Data taken from US9133160B2, “Substituted benzimidazole and imidazopyridine compounds useful as CYP17 modulators” (Bristol-Meyers Squibb Company, priority 2010, dated 2015).

Tests used:
Human CYP17 = Human CYP17 (Homo sapiens (Human), UniProt P05093); experiment: CYP17 Total SPA Assay; format: biochemical; details: microsomes from HEK2 cells stably transfected with CYP17; 3H-Pregnenolone 1 uM, NADPH 2 mM; read-out: Human CYP17 Inhibition SPA IC50
Experimental: CYP17 Total SPA Assay The assays were performed in U-bottom 384-well optiplates. […] The reaction was initiated by the combination of the microsomes and substrates in wells containing compound. The reaction was incubated at room temperature for 45 minutes and terminated by adding 7.5 μl of 0.2N HCl to each well. […] The plate was sealed and incubated overnight with shaking at 4° C. The beads were allowed to settle in the plate for 1 hour and the plate read on a TOPCOUNT® (Perkin-Elmer) plate reader. […] The final concentration of reagents in the assays are NADPH, 2 mM; 3H-Pregnenolone, 1 uM; microsomes, 1.25 ug/ml; […] Dose response curves were generated to determine the concentration required inhibiting 50% of enzyme activity (IC50). Compounds were dissolved at 10 mM in dimethylsulfoxide (DMSO) and evaluated at eleven concentrations, each in duplicate. IC50 values were derived by non-linear regression analysis. Table 3 below lists the IC50 values for the following examples of this invention measured in the Total CYP17 SPA Assay hereinabove.

testosterone levels = experiment: 1-Day Cyno PK/PD Study (plasma testosterone); format: in vivo; details: cynomolgus monkeys, single oral dose 2 mg/kg in 80% PEG-400/water, 24 hour period
Experimental: Example 31 was formulated in 80% PEG-400/water at a volume of 1 mL/kg of monkey and administered orally at 2 mg/kg. The formulation was then dosed orally at time=0 hours and blood samples were taken over a 24 hour period to monitor for drug exposure and testosterone levels. (♦) Example 31 (nM); (▴) testosterone (ng/dL).
1-Day Cyno PK/PD Study Protocol
Animals: All procedures involving animals and their care were conducted in conformity with the guidelines that are in compliance with the Bristol-Myers Squibb Institutional Animal Care and Use Committee. Fully mature male cynomolgus monkeys (>4 yrs of age; 5-6 kg) were from an in-house colony. All the monkeys used had chronically implanted femoral vein access ports. For oral studies, all animals were fasted overnight prior to dosing and were fed 4 hr after dosing. […]
Sampling: Blood samples were collected from the femoral port, at 15, 30, and 45 min, and 1, 2, 4, 6, 8, 12, 24, 30, and 48 hr after oral administration. […] The plasma fraction was immediately separated by centrifugation (14,000 rpm, 10 min, 4° C.), frozen on dry ice, and stored at −20° C. until the samples were analyzed.
Analysis of Tested Compound: Plasma samples were thawed and treated with two volumes of acetonitrile containing internal standard. After centrifugation to remove precipitated proteins, an aliquot of supernatant was analyzed by LC/MS/MS. […]

Human CYP17, sequence (P05093 whole entry): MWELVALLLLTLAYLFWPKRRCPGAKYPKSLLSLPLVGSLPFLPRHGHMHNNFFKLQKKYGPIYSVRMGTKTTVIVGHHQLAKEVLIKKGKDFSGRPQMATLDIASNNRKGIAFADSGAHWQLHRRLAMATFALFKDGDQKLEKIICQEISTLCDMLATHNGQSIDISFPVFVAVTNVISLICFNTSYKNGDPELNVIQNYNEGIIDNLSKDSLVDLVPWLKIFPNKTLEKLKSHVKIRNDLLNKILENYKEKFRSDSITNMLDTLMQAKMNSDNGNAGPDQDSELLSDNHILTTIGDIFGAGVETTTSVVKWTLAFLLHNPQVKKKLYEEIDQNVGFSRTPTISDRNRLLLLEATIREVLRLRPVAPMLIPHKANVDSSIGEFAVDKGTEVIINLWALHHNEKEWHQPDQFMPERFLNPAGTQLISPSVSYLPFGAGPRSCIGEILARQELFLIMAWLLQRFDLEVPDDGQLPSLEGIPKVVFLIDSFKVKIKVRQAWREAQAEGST

IC50 (Human CYP17) [nM] | SMILES | testosterone levels (testosterone levels) [ng/dL]
405 | Cc1ccncc1-c1cccc2c1ncn2-c1ccncc1 [Example 30, 4-(4-methylpyridin-3-yl)-1-(pyridin-4-yl)-1H-benzo[d]imidazole] | –
361 | FC(F)(F)Cn1cnc2c(-c3cnccc3Cl)cccc21 [Example 39, 4-(4-Chloropyridin-3-yl)-1-(2,2,2-trifluoroethyl)-1H-benzo[d]imidazole] | –
135 | CCOc1ncncc1-c1cccc2c1ncn2CC(F)(F)F [Example 45, 4-(4-Ethoxypyrimidin-5-yl)-1-(2,2,2-trifluoroethyl)-1H-benzo[d]imidazole] | –
12 | Cc1ccncc1-c1cccc2c1ncn2CC(F)(F)F [Example 31, 4-(4-Methylpyridin-3-yl)-1-(2,2,2-trifluoroethyl)-1H-benzo[d]imidazole] | ~15
330 | Cc1ccncc1-c1cccc2c1ncn2CC#N [Example 35, 2-(4-(4-Methylpyridin-3-yl)-1H-benzo[d]imidazol-1-yl)acetonitrile] | –
797 | Nc1ncncc1-c1cccc2c1ncn2-c1ccc(F)cc1F [Example 46, 5-(1-(2,4-Difluorophenyl)-1H-benzo[d]imidazol-4-yl)pyrimidin-4-amine] | –
5.8 | Cc1ccncc1-c1cccc2c1ncn2-c1ccccn1 [Example 2, 4-(4-methylpyridin-3-yl)-1-(pyridin-2-yl)-1H-benzo[d]imidazole] | –
656 | Cc1ccncc1-c1cccc2c1ncn2-c1ccncn1 [Example 29, 4-(4-methylpyridin-3-yl)-1-(pyrimidin-4-yl)-1H-benzo[d]imidazole] | –
674 | Nc1ncncc1-c1cccc2c1ncn2CC(F)(F)F [Example 44, 5-(1-(2,2,2-Trifluoroethyl)-1H-benzo[d]imidazol-4-yl)pyrimidin-4-amine] | –
250 | Cc1ccncc1-c1cccc2c1ncn2-c1cccnn1 [Example 6, 4-(4-methylpyridin-3-yl)-1-(pyridazin-3-yl)-1H-benzo[d]imidazole] | –
40 | Cc1ccncc1-c1cccc2c1ncn2-c1cccc(C(F)(F)F)n1 [Example 9, 4-(4-methylpyridin-3-yl)-1-(6-(trifluoromethyl)pyridin-2-yl)-1H-benzo[d]imidazole] | –
758 | Cc1ccncc1-c1cccc2c1ncn2-c1ncc(F)cc1F [Example 15, 1-(3,5-difluoropyridin-2-yl)-4-(4-methylpyridin-3-yl)-1H-benzo[d]imidazole] | –
37 | Cc1ccncc1-c1cccc2c1ncn2-c1cnccn1 [Example 4, 4-(4-methylpyridin-3-yl)-1-(pyrazin-2-yl)-1H-benzo[d]imidazole] | –
396 | Cc1ccncc1-c1cccc2c1ncn2C1CC1 [Example 37, 1-Cyclopropyl-4-(4-methylpyridin-3-yl)-1H-benzo[d]imidazole] | –

SMILES | IC50 (Human CYP17) [nM] | testosterone levels (testosterone levels) [ng/dL]
Cc1ccncc1-c1cccc2c1ncn2-c1cccc(F)n1 [Example 14, 1-(6-fluoropyridin-2-yl)-4-(4-methylpyridin-3-yl)-1H-benzo[d]imidazole] | 11 | –
